Experimental data reported in US20200354426A1 (MEDIMMUNE LIMITED, priority 2016, published 2020).
Read-outs that look alike come from different tables or passages of the source. Numbered stars: 1 amine (or outer) side, 2 acyl side, 3 side chain; on linkers, the order of the positions; unused ones are H or OH. Side chains are listed from the residue outwards. Peptide text beside a SMILES is read from it. * marks the point of attachment. γGlu = O=C(O)[C@H](CCC(=O)[*:2])N[*:1]; Palmitoyl = CCCCCCCCCCCCCCCC(=O)*; Ahx = NCCCCCC(=O)O; βAla = NCCC(=O)O

Assays:
Assay in all cases: cAMP activity assay in assay medium (assay 1)
Type in all cases: cell-based
Conditions in all cases: Table 4
Human GLP1R = Human GLP1R (Homo sapiens, UniProt P43220); set-up: expressed in transfected cells
Chain of Human GLP1R (P43220 24-463): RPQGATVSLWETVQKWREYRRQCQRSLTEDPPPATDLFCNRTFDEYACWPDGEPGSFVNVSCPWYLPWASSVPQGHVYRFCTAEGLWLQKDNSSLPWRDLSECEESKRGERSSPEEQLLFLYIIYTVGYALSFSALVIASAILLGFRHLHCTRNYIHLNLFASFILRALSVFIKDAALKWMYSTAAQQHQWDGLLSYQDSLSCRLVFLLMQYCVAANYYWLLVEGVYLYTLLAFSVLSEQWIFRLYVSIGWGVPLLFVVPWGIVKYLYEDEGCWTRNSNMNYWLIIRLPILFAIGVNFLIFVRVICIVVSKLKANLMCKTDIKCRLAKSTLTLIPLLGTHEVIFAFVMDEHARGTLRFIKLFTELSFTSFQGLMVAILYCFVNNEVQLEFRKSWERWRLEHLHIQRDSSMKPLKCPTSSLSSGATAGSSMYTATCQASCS
Source text: (§1) Biological Activity of Peptides in Cell-Based cAMP Activity Assay (Assay 1):
(§2) All sample dilutions were made in duplicate.

Human GIPr = biological target: T1, Human GIPr (Homo sapiens, UniProt P48546)
T1 construct: expressed in transfected cells
T1 sequence (P48546 22-466): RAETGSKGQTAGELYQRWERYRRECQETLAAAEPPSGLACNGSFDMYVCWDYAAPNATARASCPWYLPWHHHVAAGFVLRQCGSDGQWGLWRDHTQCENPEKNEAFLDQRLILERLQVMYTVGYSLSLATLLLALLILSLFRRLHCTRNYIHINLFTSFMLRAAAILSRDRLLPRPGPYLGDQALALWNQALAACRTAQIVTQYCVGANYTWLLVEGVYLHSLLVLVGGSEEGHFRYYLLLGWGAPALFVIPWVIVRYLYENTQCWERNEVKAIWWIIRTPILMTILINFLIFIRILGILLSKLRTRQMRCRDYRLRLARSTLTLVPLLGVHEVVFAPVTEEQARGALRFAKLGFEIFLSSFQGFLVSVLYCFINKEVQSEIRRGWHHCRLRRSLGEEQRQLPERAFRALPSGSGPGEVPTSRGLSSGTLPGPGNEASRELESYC
Source text: as §1, §2

Human GlucR = biological target: T2, Human GlucR (Homo sapiens, UniProt P47871)
T2 construct: expressed in transfected cells
T2 sequence (P47871 26-477): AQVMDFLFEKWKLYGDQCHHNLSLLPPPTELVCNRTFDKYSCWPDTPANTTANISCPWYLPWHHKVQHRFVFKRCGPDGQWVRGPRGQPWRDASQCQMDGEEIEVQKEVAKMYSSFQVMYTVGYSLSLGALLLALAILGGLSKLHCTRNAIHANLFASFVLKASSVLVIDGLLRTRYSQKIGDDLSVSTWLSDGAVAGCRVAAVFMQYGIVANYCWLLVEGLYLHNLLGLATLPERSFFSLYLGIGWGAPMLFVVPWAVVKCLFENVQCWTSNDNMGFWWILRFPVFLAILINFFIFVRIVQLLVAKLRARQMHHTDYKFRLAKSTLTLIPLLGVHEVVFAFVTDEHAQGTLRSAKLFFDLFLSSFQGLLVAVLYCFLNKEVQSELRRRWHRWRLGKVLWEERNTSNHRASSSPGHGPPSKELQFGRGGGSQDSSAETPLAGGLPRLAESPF
Source text: as §1, §2

[1] = assay medium, read-out: hGLP1R EC50
[2] = assay medium, read-out: hGIPR EC50
[3] = assay medium, read-out: hGlucR EC50

| Compound | EC50 (Human GLP1R; [1]) | EC50 (Human GIPr; [2]) | EC50 (Human GlucR; [3]) | EC50 (Human GLP1R; hGLP1R EC50, assay medium) | EC50 (Human GIPr; hGIPR EC50, assay medium) | EC50 (Human GlucR; hGlucR EC50, assay medium) |
| --- | --- | --- | --- | --- | --- | --- |
| CCCCCCCCCCCCCCCC(=O)N[C@@H](CCC(=O)NCCCC[C@H](NC(=O)[C@H](Cc1ccc(O)cc1)NC(=O)[C@H](CCCCN)NC(=O)[C@H](CO)NC(=O)[C@H](Cc1ccc(O)cc1)NC(=O)[C@H](CC(=O)O)NC(=O)[C@H](CO)NC(=O)[C@@H](NC(=O)[C@H](Cc1ccccc1)NC(=O)[C@@H](NC(=O)CNC(=O)[C@H](CCC(N)=O)NC(=O)[C@H](CO)NC(=O)[C@@H](N)Cc1c[nH]cn1)[C@@H](C)O)[C@@H](C)O)C(=O)N[C@@H](CC(=O)O)C(=O)N[C@@H](CO)C(=O)N[C@@H](CCCNC(=N)N)C(=O)N[C@@H](CCCNC(=N)N)C(=O)N[C@@H](C)C(=O)N[C@@H](CCCNC(=N)N)C(=O)N[C@@H](CC(=O)O)C(=O)N[C@@H](Cc1ccccc1)C(=O)N[C@H](C(=O)N[C@@H](CCC(=O)O)C(=O)N[C@@H](Cc1c[nH]c2ccccc12)C(=O)N[C@@H](CC(C)C)C(=O)N[C@@H](CCC(=O)O)C(=O)N[C@@H](C)C(=O)NCC(=O)NCC(N)=O)C(C)C)C(=O)O [g824] (H-HSQGTFTSDYSKYK([γGlu-Palmitoyl])DSRRARDFVEWLEAGG-NH2; N-terminus assumed) | 47.1 pM | 57400 pM | 1.05 pM |  |  |  |
| CCCCCCCCCCCCCCCC(=O)NCCCCCC(=O)NCCCC[C@H](NC(=O)[C@H](CO)NC(=O)[C@H](CC(=O)O)NC(=O)[C@H](CC(C)C)NC(=O)[C@H](Cc1ccc(O)cc1)NC(=O)[C@H](CCC(=O)O)NC(=O)[C@H](CO)NC(=O)[C@H](Cc1ccc(O)cc1)NC(=O)[C@H](CC(=O)O)NC(=O)[C@H](CO)NC(=O)[C@@H](NC(=O)[C@H](Cc1ccccc1)NC(=O)[C@@H](NC(=O)CNC(=O)[C@H](CCC(N)=O)NC(=O)[C@H](CO)NC(=O)[C@@H](N)Cc1c[nH]cn1)[C@@H](C)O)[C@@H](C)O)C(=O)N[C@@H](CCCNC(=N)N)C(=O)N[C@@H](C)C(=O)N[C@@H](CCC(N)=O)C(=O)N[C@@H](CC(=O)O)C(=O)N[C@@H](Cc1ccccc1)C(=O)N[C@H](C(=O)N[C@@H](CCC(N)=O)C(=O)N[C@@H](Cc1c[nH]c2ccccc12)C(=O)N[C@@H](CC(C)C)C(=O)N[C@@H](CCC(=O)O)C(=O)N[C@@H](CCCNC(=N)N)C(=O)NCC(=O)NCC(N)=O)C(C)C [g614] (H-HSQGTFTSDYSEYLDSK([Ahx-Palmitoyl])RAQDFVQWLERGG-NH2; N-terminus assumed) | 9.31 pM | 99300 pM | 3.65 pM |  |  |  |
| CCCCCCCCCCCCCCCC(=O)N[C@@H](CCC(=O)N[C@@H](CCC(=O)NCCCC[C@H](NC(=O)[C@H](CO)NC(=O)[C@H](CC(=O)O)NC(=O)[C@H](CC(C)C)NC(=O)[C@H](Cc1ccc(O)cc1)NC(=O)[C@H](CCCCN)NC(=O)[C@H](CO)NC(=O)[C@H](Cc1ccc(O)cc1)NC(=O)[C@H](CC(=O)O)NC(=O)[C@H](CO)NC(=O)[C@@H](NC(=O)[C@H](Cc1ccccc1)NC(=O)[C@@H](NC(=O)CNC(=O)[C@H](CCC(N)=O)NC(=O)[C@H](CO)NC(=O)[C@@H](N)Cc1c[nH]cn1)[C@@H](C)O)[C@@H](C)O)C(=O)N[C@@H](CCCNC(=N)N)C(=O)N[C@@H](C)C(=O)N[C@@H](CCC(N)=O)C(=O)N[C@@H](CC(=O)O)C(=O)N[C@@H](Cc1ccccc1)C(=O)N[C@H](C(=O)N[C@@H](CCC(N)=O)C(=O)N[C@@H](Cc1c[nH]c2ccccc12)C(=O)N[C@@H](CC(C)C)C(=O)N[C@H](C(=O)N[C@@H](C)C(=O)NCC(=O)NCC(N)=O)C(C)C)C(C)C)C(=O)O)C(=O)O [g336] | 36.6 pM | 19600 pM | 1.77 pM |  |  |  |
| CCCCCCCCCCCCCCCC(=O)N[C@@H](CCC(=O)NCCCC[C@H](NC(=O)[C@H](Cc1ccc(O)cc1)NC(=O)[C@H](CCCCN)NC(=O)[C@H](CO)NC(=O)[C@H](Cc1ccc(O)cc1)NC(=O)[C@H](CC(=O)O)NC(=O)[C@H](CO)NC(=O)[C@@H](NC(=O)[C@H](Cc1ccccc1)NC(=O)[C@@H](NC(=O)CNC(=O)[C@H](CCC(N)=O)NC(=O)[C@H](CO)NC(=O)[C@@H](N)Cc1c[nH]cn1)[C@@H](C)O)[C@@H](C)O)C(=O)N[C@@H](CC(=O)O)C(=O)N[C@@H](CO)C(=O)N[C@@H](CCC(=O)O)C(=O)N[C@@H](CCCNC(=N)N)C(=O)N[C@@H](C)C(=O)N[C@@H](CCCNC(=N)N)C(=O)N[C@@H](CC(=O)O)C(=O)N[C@@H](Cc1ccccc1)C(=O)N[C@H](C(=O)N[C@@H](CCC(=O)O)C(=O)N[C@@H](Cc1c[nH]c2ccccc12)C(=O)N[C@@H](CC(C)C)C(=O)N[C@@H](CCC(=O)O)C(=O)N[C@@H](C)C(=O)NCC(=O)NCC(N)=O)C(C)C)C(=O)O [g836] (H-HSQGTFTSDYSKYK([γGlu-Palmitoyl])DSERARDFVEWLEAGG-NH2; N-terminus assumed) | 124 pM | 100000 pM | 15.5 pM |  |  |  |
| CCCCCCCCCCCCCCCC(=O)N[C@@H](CCC(=O)NCCCC[C@H](NC(=O)[C@H](CO)NC(=O)[C@H](CC(=O)O)NC(=O)[C@H](CC(C)C)NC(=O)[C@H](Cc1ccc(O)cc1)NC(=O)[C@H](CCCCN)NC(=O)[C@H](CO)NC(=O)[C@H](Cc1ccc(O)cc1)NC(=O)[C@H](CC(=O)O)NC(=O)[C@H](CO)NC(=O)[C@@H](NC(=O)[C@H](Cc1ccccc1)NC(=O)[C@@H](NC(=O)CNC(=O)[C@H](CCC(N)=O)NC(=O)CNC(=O)[C@@H](N)Cc1c[nH]cn1)[C@@H](C)O)[C@@H](C)O)C(=O)N[C@@H](CCCNC(=N)N)C(=O)N[C@@H](C)C(=O)N[C@@H](CCC(=O)O)C(=O)N[C@@H](CC(=O)O)C(=O)N[C@@H](Cc1ccccc1)C(=O)N[C@H](C(=O)N[C@@H](CCC(N)=O)C(=O)N[C@@H](Cc1c[nH]c2ccccc12)C(=O)N[C@@H](CC(C)C)C(=O)N[C@H](C(=O)N[C@@H](C)C(=O)NCC(=O)NCC(N)=O)C(C)C)C(C)C)C(=O)O [g678] (H-HGQGTFTSDYSKYLDSK([γGlu-Palmitoyl])RAEDFVQWLVAGG-NH2; N-terminus assumed) | 106 pM | 123000 pM | 4520 pM |  |  |  |
| CCCCCCCCCCCCCCCC(=O)N[C@@H](CCC(=O)NCCCC[C@H](NC(=O)[C@H](CCCCN)NC(=O)[C@H](CO)NC(=O)[C@H](Cc1ccc(O)cc1)NC(=O)[C@H](CC(=O)O)NC(=O)[C@H](CO)NC(=O)[C@@H](NC(=O)[C@H](Cc1ccccc1)NC(=O)[C@@H](NC(=O)CNC(=O)[C@H](CCC(N)=O)NC(=O)[C@H](CO)NC(=O)[C@@H](N)Cc1c[nH]cn1)[C@@H](C)O)[C@@H](C)O)C(=O)N[C@@H](CC(C)C)C(=O)N[C@@H](CC(=O)O)C(=O)N[C@@H](CO)C(=O)N[C@@H](CCC(=O)O)C(=O)N[C@@H](CCCNC(=N)N)C(=O)N[C@@H](C)C(=O)N[C@@H](CCC(N)=O)C(=O)N[C@@H](CC(=O)O)C(=O)N[C@@H](Cc1ccccc1)C(=O)N[C@H](C(=O)N[C@@H](CCC(N)=O)C(=O)N[C@@H](Cc1c[nH]c2ccccc12)C(=O)N[C@@H](CC(C)C)C(=O)N[C@H](C(=O)N[C@@H](C)C(=O)NCC(=O)NCC(N)=O)C(C)C)C(C)C)C(=O)O [g729] (H-HSQGTFTSDYSKK([γGlu-Palmitoyl])LDSERAQDFVQWLVAGG-NH2) |  |  |  | 72.9 pM | 209000 pM | 31.9 pM |
| CC(C)C[C@H](NC(=O)[C@H](Cc1ccc(O)cc1)NC(=O)[C@H](CCCCN)NC(=O)[C@H](CO)NC(=O)[C@H](Cc1ccc(O)cc1)NC(=O)[C@H](CC(=O)O)NC(=O)[C@H](CO)NC(=O)[C@@H](NC(=O)[C@H](Cc1ccccc1)NC(=O)[C@@H](NC(=O)CNC(=O)[C@H](CCC(N)=O)NC(=O)[C@H](CO)NC(=O)[C@@H](N)Cc1c[nH]cn1)[C@@H](C)O)[C@@H](C)O)C(=O)N[C@@H](CC(=O)O)C(=O)N[C@@H](CO)C(=O)N[C@@H](CCCNC(=N)N)C(=O)N[C@@H](CCCNC(=N)N)C(=O)N[C@@H](C)C(=O)N[C@@H](CCC(N)=O)C(=O)N[C@@H](CC(=O)O)C(=O)N[C@@H](Cc1ccccc1)C(=O)N[C@H](C(=O)N[C@@H](CCC(N)=O)C(=O)N[C@@H](Cc1c[nH]c2ccccc12)C(=O)N[C@@H](CC(C)C)C(=O)N[C@H](C(=O)N[C@@H](CCCNC(=N)N)C(=O)NCC(=O)NCC(=O)NCC(=O)NCC(=O)NCC(=O)NCC(N)=O)C(C)C)C(C)C [g315] | 27.3 pM | 19700 pM | 5.04 pM |  |  |  |
| CCCCCCCCCCCCCCCC(=O)NCCC(=O)NCCCC[C@H](NC(=O)[C@H](CO)NC(=O)[C@H](CC(=O)O)NC(=O)[C@H](CC(C)C)NC(=O)[C@H](Cc1ccc(O)cc1)NC(=O)[C@H](CCC(=O)O)NC(=O)[C@H](CO)NC(=O)[C@H](Cc1ccc(O)cc1)NC(=O)[C@H](CC(=O)O)NC(=O)[C@H](CO)NC(=O)[C@@H](NC(=O)[C@H](Cc1ccccc1)NC(=O)[C@@H](NC(=O)CNC(=O)[C@H](CCC(N)=O)NC(=O)[C@H](CO)NC(=O)[C@@H](N)Cc1c[nH]cn1)[C@@H](C)O)[C@@H](C)O)C(=O)N[C@@H](CCCNC(=N)N)C(=O)N[C@@H](C)C(=O)N[C@@H](CCCNC(=N)N)C(=O)N[C@@H](CC(=O)O)C(=O)N[C@@H](Cc1ccccc1)C(=O)N[C@H](C(=O)N[C@@H](C)C(=O)N[C@@H](Cc1c[nH]c2ccccc12)C(=O)N[C@@H](CC(C)C)C(=O)N[C@@H](CCC(=O)O)C(=O)N[C@@H](C)C(=O)NCC(=O)NCC(N)=O)C(C)C [g783] (H-HSQGTFTSDYSEYLDSK([βAla-Palmitoyl])RARDFVAWLEAGG-NH2; N-terminus assumed) | 42.4 pM | 846000 pM | 91.1 pM |  |  |  |
